Source: US10696689B2, “Somatostatin modulators and uses thereof” (CRINETICS PHARMACEUTICALS, INC., priority 2018, dated 2020)

Key:
[1] = biological target: human SST2 receptor (SSTR2) (Homo sapiens (Human), UniProt P30874); assay: cAMP assay: inhibition of cAMP via human SST2 receptor in CHO-K1 cells; format: cell-based; conditions: CHO-K1 cells stably expressing human SSTR2, NKH477 stimulated
Description: (§1) General overview: All five SSTR subtypes are Gi coupled G-protein coupled receptors (GPCRs) that lead to decreases in intracellular cyclic AMP (cAMP) when activated by an agonist. Therefore, measurement of intracellular cAMP levels can be used to assess whether compounds of the invention are agonists of SSTR subtypes (John Kelly, Troy Stevens, W. Joseph Thompson, and Roland Seifert, Current Protocols in Pharmacology, 2005, 2.2.1-2.2). One example of an intracellular cAMP assay is described below.
(§2) Four days prior to the assay, 5,000 Chinese hamster ovary cells (CHO-K1, ATCC # CCL-61) stably expressing the human somatostatin receptor subtype 2 are plated in each well of a 96-well tissue culture-treated plate in Ham's F12 growth media (ThermoFisher #10-080-CM) supplemented with 10% donor bovine serum (Gemini Bio-Products #100-506), 100 U/mL penicillin; 100 ug/mL streptomycin; 2 mM L-glutamine (Gemini Bio-Products #400-110) and 0.2 mg/mL hygromycin B (GoldBio #31282-04-9). The cells are cultured at 37° C., 5% CO2 and 95% humidity. On the day of the assay, the media is aspirated and the cells are treated with 50 μL of 1.6 μM NKH477 (Sigma # N3290) plus various dilutions of compounds of the invention in assay buffer [1× Hank's Balanced Salt Solution (ThermoFisher # SH3058802), 0.5 mM HEPES pH 7.4, 0.1% bovine serum albumin, 0.2 mM 3-Isobutyl-1-methylxanthine (IBMX, VWR #200002-790)]. The cells are incubated for 20 minutes at 37° C. (the final concentration of the compounds of the invention are typically 0-10,000 nM). The cells are treated with 50 μL of lysis buffer (HRTF cAMP kit, Cisbio). The lysate is transferred to 384-well plates and cAMP detection and visualization antibodies are added and incubated for 1-24 hours at room temperature. The time-resolved fluorescent signal is read with a Tecan M1000Pro multiplate reader. The intracellular cAMP concentrations are calculated by regression to a standard curve and are plotted vs. the concentration of the compounds of the invention and the EC50 of the compounds are calculated using standard methods. All data manipulations are in GraphPad Prism v6.

hSSTR2 vs. hSSTR4 = assay: Selectivity for inhibition of cAMP via hSSTR2 vs. hSSTR4; format: cell-based, human; conditions: Table C
Description: as §1, §2

[2] = Liver microsomal stability assay; format: in vitro ADME; conditions: human liver microsomes 0.5 mg/mL, 1 μM compound, 37° C.
Method: The in vitro stabilities of compounds of interest were determined for various species using pooled male and female human, pooled male Sprague-Dawley rat, pooled male Cynomolgus monkey, and pooled male Beagle dog liver microsomes at microsomal protein concentrations of 0.5 mg/mL. Incubations were carried out in a potassium phosphate buffer (50 mM). The NADPH-generating system was composed of NADP+ (1 mM), magnesium chloride (3 mM), EDTA (1 mM), glucose-6-phosphate (5 mM) and glucose-6-phosphate dehydrogenase (1 Unit/mL) for all experiments. Compounds of interest in DMSO were added to achieve a final incubation concentration of 1 μM (final DMSO content was 0.1% v/v and final acetonitrile content was 0.9%). The final incubation volume was 400 μL. Incubations were conducted at 37° C. for 0, 5, 10, 20, 40 and 60 minutes in a shaking water bath and terminated by removing 50 μL of incubation mixture and adding to 100 μL of ice cold acetonitrile containing internal standard. Following precipitation by centrifugation at 3500 rpm and 4° C. for 30 minutes, compounds of interest and internal standard were analyzed in the resultant supernatant using a multiple reaction monitoring (MRM) LC-MS/MS method. MS conditions were optimized for each analyte.
The following Table (Table D) illustrates human liver microsomal stability of exemplary compounds.

Chain of human SST2 receptor (SSTR2) (P30874 whole entry): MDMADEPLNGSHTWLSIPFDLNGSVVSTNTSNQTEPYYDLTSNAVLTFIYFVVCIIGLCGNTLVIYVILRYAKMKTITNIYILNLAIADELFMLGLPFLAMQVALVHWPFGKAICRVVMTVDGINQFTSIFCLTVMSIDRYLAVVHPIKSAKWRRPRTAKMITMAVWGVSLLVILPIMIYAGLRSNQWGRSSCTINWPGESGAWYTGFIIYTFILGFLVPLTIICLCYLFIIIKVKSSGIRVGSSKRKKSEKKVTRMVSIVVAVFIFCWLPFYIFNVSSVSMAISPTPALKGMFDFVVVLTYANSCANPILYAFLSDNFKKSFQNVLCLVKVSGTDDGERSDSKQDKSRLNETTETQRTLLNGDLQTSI

Row | SMILES | EC50 [1] [nM] | hSST4/hSST2 (ratio) (hSSTR2 vs. hSSTR4) | HLM t1/2 [2] [h]
1 | N#Cc1cc(F)c2nc(-c3c(N)ncc(-c4cc(F)cc(F)c4)c3N3CC[C@@H]4OCCN[C@H]4C3)[nH]c2c1 [Compound 3-19, 2-{4-[(4αS,8αS)-octahydro-1H-pyrido[3,4-b][1,4]oxazin-6-yl]-2-amino-5-(3,5-difluorophenyl)pyridin-3-yl}-4-fluoro-1H-1,3-benzodiazole-6-carbonitrile] | 0.1 to 1 | b (b = bewteen 15 and 50;) | 5.78
2 | COc1cc(C#N)cc2[nH]c(-c3c(N)ncc(-c4cccc(F)c4)c3N3CC[C@@H]4NCCO[C@H]4C3)nc12 [Compound 3-11, 2-{4-[(4αS, 8αS)-octahydro-1H-pyrido[3,4-b][1,4]oxazin-6-yl]-2-amino-5-(3-fluorophenyl)pyridin-3-yl}-4-methoxy-1H-1,3-benzodiazole-6-carbonitrile] | 0.1 to 1 | a (a = above 50,) | >11.6
3 | COc1cc(C#N)cc2[nH]c(-c3c(N)ncc(-c4cc(F)cc(F)c4)c3N3CC[C@@H]4NCCO[C@H]4C3)nc12 [Compound 3-18, 2-{4-[(4αS,8αS)-octahydro-1H-pyrido[3,4-b][1,4]oxazin-6-yl]-2-amino-5-(3,5-difluorophenyl)pyridin-3-yl}-4-methoxy-1H-1,3-benzodiazole-6-carbonitrile] | 0.1 to 1 | b (b = bewteen 15 and 50;) | 1.65
4 | Nc1ncc(-c2cccc(F)c2)c(N2CC[C@@H]3NCCO[C@H]3C2)c1-c1nc2c(F)cc(F)cc2[nH]1 [Compound 3-3, 4-[(4αS,8αS)-octahydro-1H-pyrido[3,4-b][1,4]oxazin-6-yl]-3-(4,6-difluoro-1H-1,3-benzodiazol-2-yl)-5-(3-fluorophenyl)pyridin-2-amine] | 0.1 to 1 | c (c = between 2.5 and 15;) | 3.85
